# Source: patent US11739100B2, “2,3-dihydro-1h-imidazo{1,2-a}pyrimidin-5-one and this 1,2,3,4-tetrahydropyrimido{1,2-a}pyrimidin-6-one derivatives comprising a substituted morpholine, preparation thereof and pharmaceutical use thereof” (SANOFI, priority 2012, dated 2023)
# Biological target: T1, recombinant Vps34 (Homo sapiens, UniProt Q8NEB9)
# T1 construct: purchased Invitrogen PV5126
# Assay: Phosphorylation of phosphatidylinositol (PI) by Vps34 in vitro, ADP detected by TR-FRET (HTRF Transcreener ADP)
# Type: biochemical
# Conditions: 10 μM ATP, 55 μg/ml PI, approximately 3 nM Vps34, 1 hour at ambient temperature; absolute IC50, mean of two independent experiments; read-out: IC50 activity range
# T1 sequence (Q8NEB9 whole entry): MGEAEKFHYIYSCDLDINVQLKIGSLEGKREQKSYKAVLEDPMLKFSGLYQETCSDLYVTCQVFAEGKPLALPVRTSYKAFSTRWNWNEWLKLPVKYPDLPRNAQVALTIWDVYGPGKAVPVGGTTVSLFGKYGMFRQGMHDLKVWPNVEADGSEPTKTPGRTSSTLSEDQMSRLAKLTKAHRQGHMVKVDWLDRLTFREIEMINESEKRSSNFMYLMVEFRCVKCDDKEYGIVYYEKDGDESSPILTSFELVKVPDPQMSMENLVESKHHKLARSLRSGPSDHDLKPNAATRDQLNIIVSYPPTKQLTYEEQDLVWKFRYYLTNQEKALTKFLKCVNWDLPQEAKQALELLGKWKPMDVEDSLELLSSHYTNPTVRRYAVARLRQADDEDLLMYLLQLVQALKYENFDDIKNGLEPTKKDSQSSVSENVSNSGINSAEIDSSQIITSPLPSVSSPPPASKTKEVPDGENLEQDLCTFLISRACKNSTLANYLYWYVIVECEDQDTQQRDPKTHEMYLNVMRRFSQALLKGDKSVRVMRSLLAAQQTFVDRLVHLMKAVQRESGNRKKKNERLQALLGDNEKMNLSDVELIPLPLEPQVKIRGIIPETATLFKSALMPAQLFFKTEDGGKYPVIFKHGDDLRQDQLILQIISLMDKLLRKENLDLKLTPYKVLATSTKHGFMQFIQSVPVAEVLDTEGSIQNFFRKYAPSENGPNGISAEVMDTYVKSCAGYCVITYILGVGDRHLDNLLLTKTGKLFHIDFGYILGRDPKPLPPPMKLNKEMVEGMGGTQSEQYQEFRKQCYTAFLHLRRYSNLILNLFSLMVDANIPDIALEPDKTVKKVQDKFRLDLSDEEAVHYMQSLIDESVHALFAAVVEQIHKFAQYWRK
row,Structure (SMILES),IC50 [nM]
1,"C[C@@H]1COCCN1c1nc2n(c(=O)c1F)[C@@H](C(F)(F)F)CCN2Cc1ncco1 [Example 129, (R)-3-Fluoro-2-((R)-3-methylmorpholin-4-yl)-9-oxazol-2-ylmethyl-6-trifluoromethyl-6,7,8,9-tetrahydro-pyrimido[1,2-a]-pyrimidin-4-one]",< 10
2,"CC(C)C(=O)CN1CC[C@H](C(F)(F)F)n2c1nc(N1CCOC[C@H]1C)cc2=O [Example 130, (R)-2-((R)-3-Methyl-morpholin-4-yl)-9-(3-methyl-2-oxobutyl)-6-trifluoromethyl-6,7,8,9-tetrahydro-pyrimido[1,2-a]-pyrimidin-4-one]",< 10
3,"C[C@@H]1COCCN1c1cc(=O)n2c(n1)N(CC(=O)C1CCOCC1)CC[C@@H]2C(F)(F)F [Example 131, (R)-2-((R)-3-Methyl-morpholin-4-yl)-9-[2-oxo-2-(tetrahydro-pyran-4-yl)ethyl]-6-trifluoromethyl-6,7,8,9-tetrahydro-pyrimido[1,2-a]-pyrimidin-4-one]",< 10
4,"C[C@@H]1COCCN1c1nc2n(c(=O)c1F)[C@@H](C(F)(F)F)CCN2CC(=O)C1CCOCC1 [Example 132, (R)-3-Fluoro-2-((R)-3-methylmorpholin-4-yl)-9-[2-oxo-2-(tetrahydro-pyran-4-yl)ethyl]-6-trifluoromethyl-6,7,8,9-tetrahydro-pyrimido[1,2-a]-pyrimidin-4-one]",< 10
5,"C[C@@H]1COCCN1c1cc(=O)n2c(n1)N(CC1COC1)[C@H](C(F)(F)F)CC2 [Example 133, (S)-2-((R)-3-Methyl-morpholin-4-yl)-9-oxetan-3-ylmethyl-8-trifluoromethyl-6,7,8,9-tetrahydro-pyrimido[1,2-a]-pyrimidin-4-one]",< 10
6,"C[C@@H]1COCCN1c1cc(=O)n2c(n1)N(c1ccc(C(F)F)nc1)C(C(F)(F)F)CC2 (stereo partly drawn) [Example 134, 9-(6-Difluoromethyl-pyridin-3-yl)-2-((R)-3-methylmorpholin-4-yl)-8-trifluoromethyl-6,7,8,9-tetrahydro-pyrimido[1,2-a]-pyrimidin-4-one]",< 10
7,"C[C@@H]1COCCN1c1nc2n(c(=O)c1F)[C@@H](C(F)(F)F)CCN2CC(=O)c1ccccn1 [Example 135, (R)-3-Fluoro-2-((R)-3-methylmorpholin-4-yl)-9-(2-oxo-2-pyridin-2-ylethyl)-6-trifluoromethyl-6,7,8,9-tetrahydro-pyrimido[1,2-a]-pyrimidin-4-one]",< 10
8,"C[C@@H]1COCCN1c1cc(=O)n2c(n1)N(Cc1nnc(C(F)(F)F)o1)[C@H](C(F)(F)F)CC2 [Example 140, (S)-2-((R)-3-Methyl-morpholin-4-yl)-8-trifluoromethyl-9-(5-trifluoromethyl-[1,3,4]oxadiazol-2-yl-methyl)-6,7,8,9-tetrahydro-pyrimido[1,2-a]-pyrimidin-4-one]",< 10
9,"C[C@@H]1COCCN1c1cc(=O)n2c(n1)N(CC(=O)c1cccnc1)CC[C@@H]2C(F)(F)F [Example 141, (R)-2-((R)-3-Methyl-morpholin-4-yl)-9-(2-oxo-2-pyridin-3-yl-ethyl)-6-trifluoromethyl-6,7,8,9-tetrahydro-pyrimido[1,2-a]-pyrimidin-4-one]",< 10
10,"C[C@@H]1COCCN1c1cc(=O)n2c(n1)N(Cc1nnc(C3CC3)o1)[C@H](C(F)(F)F)CC2 [Example 142, (S)-9-(5-Cyclopropyl-[1,3,4]oxadiazol-2-yl-methyl)-2-((R)-3-methylmorpholin-4-yl)-8-trifluoromethyl-6,7,8,9-tetrahydro-pyrimido[1,2-a]-pyrimidin-4-one]",< 10
11,"Cc1nocc1CN1CC[C@H](C(F)(F)F)n2c1nc(N1CCOC[C@H]1C)cc2=O [Example 143, (R)-9-(3-Methyl-isoxazol-4-ylmethyl)-2-((R)-3-methyl-morpholin-4-yl)-6-trifluoromethyl-6,7,8,9-tetrahydro-pyrimido[1,2-a]-pyrimidin-4-one]",< 10
